In ChEMBL document CHEMBL1127083 (J Med Chem, 1993):

Legend:
[1] = target: Leukotriene B4 receptor 1 (Homo sapiens, UniProt Q15722); test: Tested for inhibition of specific binding of [3H]LTB4 to human neutrophil expressing LTB4 receptor
Leukotriene B4 receptor = Leukotriene B4 receptor (Homo sapiens, UniProt Q9NPC1+Q15722); test: Inhibition of LTB4-induced up-regulation of human neutrophil CD11b/CD18 integrin; assay type: functional

Sequence of Leukotriene B4 receptor 1 (Q15722 whole entry): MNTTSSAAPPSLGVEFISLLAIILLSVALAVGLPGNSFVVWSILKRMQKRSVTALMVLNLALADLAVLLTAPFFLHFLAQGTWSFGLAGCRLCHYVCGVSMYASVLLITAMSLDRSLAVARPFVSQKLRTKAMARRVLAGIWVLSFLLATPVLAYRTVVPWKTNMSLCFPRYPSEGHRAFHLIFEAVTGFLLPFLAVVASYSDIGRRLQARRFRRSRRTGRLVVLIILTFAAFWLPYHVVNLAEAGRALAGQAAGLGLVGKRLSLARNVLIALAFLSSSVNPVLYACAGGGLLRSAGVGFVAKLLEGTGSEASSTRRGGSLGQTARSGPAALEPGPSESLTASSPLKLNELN

CCc1cc(-c2ccc(F)cc2)c(O)cc1OCCCOc1ccc2c(=O)c3cc(C(=O)O)ccc3oc2c1CCC(=O)O
Ki [1]: 0.47 nM
IC50 (Leukotriene B4 receptor): 1.2 nM

CCc1cc(-c2ccccc2)c(O)cc1OCCCOc1ccc2c(=O)c3ccccc3oc2c1CCC(=O)O
Ki [1]: 22 nM
IC50 (Leukotriene B4 receptor): 5.4 nM

CCc1cc(-c2ccccc2)c(O)cc1OCCCOc1ccc2c(=O)c3cc(C(=O)O)ccc3oc2c1CCC(=O)O
Ki [1]: 0.57 nM
IC50 (Leukotriene B4 receptor): 3.4 nM

CCc1cc(-c2ccc(F)cc2)c(O)cc1OCCCOc1ccc2c(=O)c3ccccc3oc2c1CCC(=O)O
Ki [1]: 36 nM
IC50 (Leukotriene B4 receptor): 1.8 nM
